According to the NIST ThermoML archive (doi:10.1016/j.jct.2003.11.008):
± gives the expanded uncertainty stated by the source.

Legend:
[1] = excess molar enthalpy (molar enthalpy of mixing); xn = mol fraction of the nth substance listed; conditions: 318.15 K, 101.3 kPa, Liquid
[2] = xn = mol fraction of the nth substance listed; conditions: 318.15 K, 101.3 kPa, Liquid

CCCCCCCCC [nonane] + COC(C)=O
Conditions	excess molar enthalpy [kcal/mol]	excess molar volume [m3/mol]
[1], x2 = 0.0822	0.131 ± 0.00239	–
[1], x2 = 0.1628	0.241 ± 0.00406	–
[1], x2 = 0.2353	0.335 ± 0.0055	–
[1], x2 = 0.2999	0.398 ± 0.00645	–
[1], x2 = 0.364	0.448 ± 0.00741	–
[1], x2 = 0.4195	0.481 ± 0.00789	–
[1], x2 = 0.4714	0.497 ± 0.00813	–
[1], x2 = 0.5122	0.504 ± 0.00813	–
[1], x2 = 0.549	0.507 ± 0.00813	–
[1], x2 = 0.5847	0.506 ± 0.00813	–
[1], x2 = 0.621	0.502 ± 0.00813	–
[1], x2 = 0.6618	0.49 ± 0.00789	–
[1], x2 = 0.7017	0.463 ± 0.00765	–
[1], x2 = 0.7452	0.433 ± 0.00717	–
[1], x2 = 0.7891	0.388 ± 0.00645	–
[1], x2 = 0.8353	0.343 ± 0.00574	–
[1], x2 = 0.8771	0.289 ± 0.00478	–
[1], x2 = 0.9219	0.208 ± 0.00359	–
[1], x2 = 0.9643	0.103 ± 0.00203	–
[2], x2 = 0.1052	–	6.91e-07 ± 1.9e-08
[2], x2 = 0.2035	–	1.199e-06 ± 2.1e-08
[2], x2 = 0.2896	–	1.534e-06 ± 2.3e-08
[2], x2 = 0.3598	–	1.693e-06 ± 2.3e-08
[2], x2 = 0.4249	–	1.805e-06 ± 2.4e-08
[2], x2 = 0.4901	–	1.864e-06 ± 2.4e-08
[2], x2 = 0.547	–	1.881e-06 ± 2.4e-08
[2], x2 = 0.5991	–	1.837e-06 ± 2.4e-08
[2], x2 = 0.6418	–	1.774e-06 ± 2.4e-08
[2], x2 = 0.6901	–	1.658e-06 ± 2.3e-08
[2], x2 = 0.7312	–	1.562e-06 ± 2.3e-08
[2], x2 = 0.7687	–	1.431e-06 ± 2.2e-08
[2], x2 = 0.7969	–	1.305e-06 ± 2.2e-08
[2], x2 = 0.8736	–	9.39e-07 ± 2e-08
[2], x2 = 0.925	–	6.28e-07 ± 1.8e-08
[2], x2 = 0.9663	–	3.07e-07 ± 1.7e-08

CCCCCCCCCCCCCCCCC [heptadecane] + CCOC(C)=O
Conditions	excess molar enthalpy [kcal/mol]	excess molar volume [m3/mol]
[1], x2 = 0.0911	0.136 ± 0.00239	–
[1], x2 = 0.1754	0.245 ± 0.0043	–
[1], x2 = 0.2543	0.345 ± 0.00574	–
[1], x2 = 0.3274	0.415 ± 0.00669	–
[1], x2 = 0.394	0.467 ± 0.00765	–
[1], x2 = 0.4566	0.506 ± 0.00813	–
[1], x2 = 0.512	0.525 ± 0.0086	–
[1], x2 = 0.558	0.534 ± 0.0086	–
[1], x2 = 0.6007	0.531 ± 0.0086	–
[1], x2 = 0.634	0.523 ± 0.00837	–
[1], x2 = 0.6486	0.519 ± 0.00837	–
[1], x2 = 0.6818	0.504 ± 0.00813	–
[1], x2 = 0.7172	0.485 ± 0.00789	–
[1], x2 = 0.7538	0.463 ± 0.00765	–
[1], x2 = 0.7913	0.426 ± 0.00693	–
[1], x2 = 0.8271	0.392 ± 0.00645	–
[1], x2 = 0.8653	0.342 ± 0.00574	–
[1], x2 = 0.9018	0.287 ± 0.00478	–
[1], x2 = 0.9382	0.22 ± 0.00382	–
[1], x2 = 0.9719	0.121 ± 0.00232	–
[2], x2 = 0.1461	–	6.4e-07 ± 1.8e-08
[2], x2 = 0.2562	–	1.04e-06 ± 2e-08
[2], x2 = 0.3512	–	1.284e-06 ± 2.1e-08
[2], x2 = 0.4324	–	1.449e-06 ± 2.2e-08
[2], x2 = 0.5057	–	1.538e-06 ± 2.3e-08
[2], x2 = 0.5143	–	1.548e-06 ± 2.3e-08
[2], x2 = 0.5756	–	1.565e-06 ± 2.3e-08
[2], x2 = 0.5814	–	1.562e-06 ± 2.3e-08
[2], x2 = 0.6778	–	1.503e-06 ± 2.2e-08
[2], x2 = 0.7269	–	1.41e-06 ± 2.2e-08
[2], x2 = 0.7898	–	1.273e-06 ± 2.1e-08
[2], x2 = 0.8421	–	1.081e-06 ± 2.1e-08
[2], x2 = 0.903	–	7.83e-07 ± 1.9e-08
[2], x2 = 0.9457	–	5.1e-07 ± 1.8e-08
[2], x2 = 0.9685	–	3.18e-07 ± 1.7e-08

CCCCCCCCCCCCC [tridecane] + CCCOC(C)=O
Conditions	excess molar enthalpy [kcal/mol]	excess molar volume [m3/mol]
[1], x2 = 0.087	0.103 ± 0.00198	–
[1], x2 = 0.1659	0.187 ± 0.00335	–
[1], x2 = 0.2413	0.26 ± 0.0043	–
[1], x2 = 0.3093	0.312 ± 0.00526	–
[1], x2 = 0.3709	0.349 ± 0.00574	–
[1], x2 = 0.4257	0.372 ± 0.00621	–
[1], x2 = 0.477	0.386 ± 0.00645	–
[1], x2 = 0.5193	0.39 ± 0.00645	–
[1], x2 = 0.5602	0.391 ± 0.00645	–
[1], x2 = 0.6296	0.379 ± 0.00621	–
[1], x2 = 0.6706	0.367 ± 0.00598	–
[1], x2 = 0.716	0.346 ± 0.00574	–
[1], x2 = 0.7628	0.317 ± 0.00526	–
[1], x2 = 0.809	0.272 ± 0.00454	–
[1], x2 = 0.8594	0.218 ± 0.00382	–
[1], x2 = 0.9097	0.158 ± 0.00287	–
[1], x2 = 0.9585	0.0781 ± 0.00163	–
[2], x2 = 0.1139	–	4.77e-07 ± 1.8e-08
[2], x2 = 0.1844	–	7.09e-07 ± 1.9e-08
[2], x2 = 0.2748	–	9.32e-07 ± 2e-08
[2], x2 = 0.3425	–	1.072e-06 ± 2e-08
[2], x2 = 0.4123	–	1.16e-06 ± 2.1e-08
[2], x2 = 0.4772	–	1.205e-06 ± 2.1e-08
[2], x2 = 0.5337	–	1.232e-06 ± 2.1e-08
[2], x2 = 0.5864	–	1.216e-06 ± 2.1e-08
[2], x2 = 0.6311	–	1.183e-06 ± 2.1e-08
[2], x2 = 0.6791	–	1.139e-06 ± 2.1e-08
[2], x2 = 0.722	–	1.069e-06 ± 2e-08
[2], x2 = 0.7535	–	1.012e-06 ± 2e-08
[2], x2 = 0.7862	–	9.31e-07 ± 2e-08
[2], x2 = 0.8631	–	6.98e-07 ± 1.9e-08
[2], x2 = 0.9199	–	4.58e-07 ± 1.8e-08
[2], x2 = 0.9642	–	2.27e-07 ± 1.7e-08

CCCCCCCCCCCCC [tridecane] + CCOC(C)=O
Conditions	excess molar enthalpy [kcal/mol]	excess molar volume [m3/mol]
[1], x2 = 0.0838	0.122 ± 0.00227	–
[1], x2 = 0.1616	0.217 ± 0.00382	–
[1], x2 = 0.2388	0.302 ± 0.00502	–
[1], x2 = 0.3097	0.371 ± 0.00621	–
[1], x2 = 0.3743	0.42 ± 0.00693	–
[1], x2 = 0.4307	0.449 ± 0.00741	–
[1], x2 = 0.4842	0.467 ± 0.00765	–
[1], x2 = 0.532	0.478 ± 0.00789	–
[1], x2 = 0.5728	0.479 ± 0.00789	–
[1], x2 = 0.6188	0.474 ± 0.00765	–
[1], x2 = 0.6556	0.463 ± 0.00765	–
[1], x2 = 0.6946	0.449 ± 0.00741	–
[1], x2 = 0.7336	0.427 ± 0.00693	–
[1], x2 = 0.7755	0.396 ± 0.00645	–
[1], x2 = 0.8179	0.354 ± 0.00598	–
[1], x2 = 0.8605	0.3 ± 0.00502	–
[1], x2 = 0.9015	0.239 ± 0.00406	–
[1], x2 = 0.9432	0.161 ± 0.00287	–
[1], x2 = 0.9761	0.0749 ± 0.00163	–
[2], x2 = 0.1246	–	6.09e-07 ± 1.8e-08
[2], x2 = 0.2249	–	9.81e-07 ± 2e-08
[2], x2 = 0.3076	–	1.215e-06 ± 2.1e-08
[2], x2 = 0.3854	–	1.386e-06 ± 2.2e-08
[2], x2 = 0.4562	–	1.461e-06 ± 2.2e-08
[2], x2 = 0.5148	–	1.515e-06 ± 2.3e-08
[2], x2 = 0.5732	–	1.518e-06 ± 2.3e-08
[2], x2 = 0.6235	–	1.506e-06 ± 2.2e-08
[2], x2 = 0.6695	–	1.462e-06 ± 2.2e-08
[2], x2 = 0.7136	–	1.402e-06 ± 2.2e-08
[2], x2 = 0.7509	–	1.322e-06 ± 2.2e-08
[2], x2 = 0.775	–	1.255e-06 ± 2.1e-08
[2], x2 = 0.8123	–	1.128e-06 ± 2.1e-08
[2], x2 = 0.881	–	8.36e-07 ± 1.9e-08
[2], x2 = 0.9317	–	5.36e-07 ± 1.8e-08
[2], x2 = 0.9691	–	2.65e-07 ± 1.7e-08
